The values that follow come from patent US20250388568A1, “NLRP3 INHIBITORS” (Kodiak Sciences Inc., priority 2022, published 2025).

Assay [1] has as its system IL-1β release in THP-1-ASC-GFP cells after NLRP3 activation. Description: IC50 determination of IL-1β release inhibition in THP-1-ASC-GFP cells. It is filed as cell-based. The note with it: THP1-ASC-GFP; THP-1-ASC-GFP cells, LPS priming 4 h, nigericin; average of at least three experiments; read-out: IL-1β IC50 (nM) THP1 cells. An outline of the steps: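 THP-1-ASC-GFP cells were primed with 1 μg/mL LPS for 4 h, pretreated with compound for 30 min, then stimulated with nigericin plus compound for 1 h. Secreted IL-1β in supernatants was quantified by MSD electrochemiluminescence immunoassay. IC50 values were calculated from the measured IL-1β concentrations.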

Assay [2] has as its system IL-1β release in U937 cells after NLRP3 activation. The assay can be described thus: IC50 determination of IL-1β release inhibition in U937 cells. The note with it: Homo sapiens, U-937; PMA-differentiated U937 cells, LPS priming 5 h, nigericin; average of at least three experiments; read-out: IL-1β IC50 (nM) U937 cells. The class given is cell-based. The method, boiled down:
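PMA-differentiated U937 cells (90 h) were primed 5 h with 1 μg/mL LPS, pre-incubated 30 min with compound, then stimulated with nigericin for 1 h. Supernatant IL-1β was quantified by MSD electrochemiluminescence. IC50 was derived from IL-1β concentration, with duplicate wells per compound.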

For `N=S(=O)(NC(=O)Nc1c2c(cc3c1CCC3)CCC2)c1cc(CN2CC(O)C2)co1` (centres unmarked) [Example 1, N-((1,2,3,5,6,7-hexahydro-s-indacen-4-yl)carbamoyl)-4-((3-hydroxyazetidin-1-yl)methyl)furan-2-sulfonimidamide], the figures for the IC50 in assay [1] and in assay [2] were under 5 nM and 5 to 50 nM, respectively.

With `Cc1oc(S(=O)(=O)NC(=O)Nc2c3c(c(F)c4c2CCC4)CCC3)cc1CN1C[C@H](O)[C@@H](F)C1` [Example 41, N-((8-fluoro-1,2,3,5,6,7-hexahydro-s-indacen-4-yl)carbamoyl)-4-(((3S,4S)-3-fluoro-4-hydroxypyrrolidin-1-yl)methyl)-5-methylfuran-2-sulfonamide], the IC50 in assay [1] and in assay [2] was 5 to 50 nM each time.

On to `CN(CC1(O)CCC1)C(=O)c1coc(S(=N)(=O)NC(=O)Nc2c3c(cc4c2CCC4)CCC3)c1` (centres unmarked) [Example 4, 5-(N-((1,2,3,5,6,7-hexahydro-s-indacen-4-yl)carbamoyl)sulfamidimidoyl)-N-((1-hydroxycyclobutyl)methyl)-N-methylfuran-3-carboxamide], for which the IC50 in assay [1] and in assay [2] was under 5 nM each time.

`Cn1nc(S(=O)(=O)NC(=O)Nc2c3c(c(F)c4c2CCC4)CCC3)cc1CN1CC[C@H](O)C1` [Example 60, (S)-N-((8-fluoro-1,2,3,5,6,7-hexahydro-s-indacen-4-yl)carbamoyl)-5-((3-hydroxypyrrolidin-1-yl)methyl)-1-methyl-1H-pyrazole-3-sulfonamide]: the IC50 in assay [1] lay within 5 to 50 nM; in assay [2], 50 to 500 nM.

With `Cn1nc(S(=O)(=O)NC(=O)Nc2c3c(c(F)c4c2CCC4)CCC3)cc1CN1CCC[C@H]1CO` [Example 62, (S)-N-((8-fluoro-1,2,3,5,6,7-hexahydro-s-indacen-4-yl)carbamoyl)-5-((2-(hydroxymethyl)pyrrolidin-1-yl)methyl)-1-methyl-1H-pyrazole-3-sulfonamide], the IC50 in assay [1] and in assay [2] was 5 to 50 nM throughout.

Regarding `CN(Cc1cc(S(=O)(=O)NC(=O)Nc2c3c(c(F)c4c2CCC4)CCC3)nn1C)CC1(O)CCC1` [Example 58, 3-(8-fluoro-1,2,3,5,6,7-hexahydro-s-indacen-4-yl)-1-[5-({[(1-hydroxycyclobutyl)methyl](methyl)amino}methyl)-1-methylpyrazol-3-ylsulfonyl]urea], the IC50 lay within 50 to 500 nM in assay [1] and 5 to 50 nM in assay [2].

On to `Cc1oc(S(=N)(=O)NC(=O)Nc2c3c(cc4c2CCC4)CCC3)cc1CN` (centres unmarked) [Example 24, 4-(aminomethyl)-N-((1,2,3,5,6,7-hexahydro-s-indacen-4-yl)carbamoyl)-5-methylfuran-2-sulfonimidamide], for which the results for the IC50 in assay [1] and in assay [2] were under 5 nM and 5 to 50 nM, respectively.
